Test results taken from ChEMBL document CHEMBL5335767, “Synthesis and study of new siderophore analog-ciprofloxacin conjugates with antibiotic activities against Pseudomonas aeruginosa and Burkholderia spp” (Eur J Med Chem, 2023).
≈ marks a conversion by molar mass, not a printed value.

Assays:
[1] = tested on: Burkholderia pseudomallei; assay: Antibacterial activity against Burkholderia pseudomallei BPS2020IRBA002 under muller hinton medium by CLSI protocol based microdilution method; assay type: functional
[2] = tested on: Pseudomonas aeruginosa; assay: Antibacterial activity against Pseudomonas aeruginosa PAD07 under succinate minimum medium by CLSI protocol based microdilution method; assay type: functional
[3] = tested on: Burkholderia pseudomallei; assay: Antibacterial activity against Burkholderia pseudomallei BPS2020IRBA002 under 1 uM FeCl3 medium by CLSI protocol based microdilution method; assay type: functional
[4] = Antibacterial activity against Burkholderia pseudomallei BPS2020IRBA005 under 1 uM FeCl3 medium by CLSI protocol based microdilution method; assay type: functional; conditions: Burkholderia thailandensis
[5] = tested on: Burkholderia thailandensis; assay: Antibacterial activity against Burkholderia thailandensis E264TS32C10 under succinate minimum medium by CLSI protocol based microdilution method; assay type: functional
[6] = tested on: Pseudomonas aeruginosa; assay: Antibacterial activity against Pseudomonas aeruginosa AM85 under succinate minimum medium by CLSI protocol based microdilution method; assay type: functional
[7] = tested on: Pseudomonas aeruginosa; assay: Antibacterial activity against Pseudomonas aeruginosa AM85 under 1 uM FeCl3 medium by CLSI protocol based microdilution method; assay type: functional
[8] = tested on: Burkholderia pseudomallei; assay: Antibacterial activity against Burkholderia pseudomallei K96243 under muller hinton medium by CLSI protocol based microdilution method; assay type: functional
[9] = tested on: Burkholderia pseudomallei; assay: Antibacterial activity against Burkholderia pseudomallei BPS2020IRBA003 under succinate minimum medium by CLSI protocol based microdilution method; assay type: functional
[10] = tested on: Burkholderia thailandensis; assay: Antibacterial activity against Burkholderia thailandensis E264 under succinate minimum medium by CLSI protocol based microdilution method; assay type: functional
[11] = tested on: Burkholderia pseudomallei; assay: Antibacterial activity against Burkholderia pseudomallei BPS2020IRBA001 under muller hinton medium by CLSI protocol based microdilution method; assay type: functional
[12] = tested on: Pseudomonas aeruginosa; assay: Antibacterial activity against Pseudomonas aeruginosa PAO1 under muller hinton medium by CLSI protocol based microdilution method; assay type: functional
[13] = tested on: Burkholderia thailandensis; assay: Antibacterial activity against Burkholderia thailandensis E264TS32C10 under muller hinton medium by CLSI protocol based microdilution method; assay type: functional
[14] = tested on: Pseudomonas aeruginosa; assay: Antibacterial activity against Pseudomonas aeruginosa PAD07 under 1 uM FeCl3 medium by CLSI protocol based microdilution method; assay type: functional
[15] = tested on: Burkholderia thailandensis; assay: Antibacterial activity against Burkholderia thailandensis E264TS32C12 under 1 uM FeCl3 medium by CLSI protocol based microdilution method; assay type: functional
[16] = tested on: Burkholderia pseudomallei; assay: Antibacterial activity against Burkholderia pseudomallei BPS2020IRBA004 under muller hinton medium by CLSI protocol based microdilution method; assay type: functional
[17] = tested on: Burkholderia pseudomallei; assay: Antibacterial activity against Burkholderia pseudomallei BPS2020IRBA003 under muller hinton medium by CLSI protocol based microdilution method; assay type: functional
[18] = tested on: HepG2; assay: Cytotoxicity against human HepG2 cells at 28 ug/ml after 48 hrs by CellTiter-Glo luminescent cell viability assay; assay type: toxicity, cell-based; conditions: hepg2, 48 h, dose 28 µg/ml
[19] = tested on: Burkholderia pseudomallei; assay: Antibacterial activity against Burkholderia pseudomallei K96243 under succinate minimum medium by CLSI protocol based microdilution method; assay type: functional
[20] = tested on: Burkholderia pseudomallei; assay: Antibacterial activity against Burkholderia pseudomallei BPS2020IRBA001 under 1 uM FeCl3 medium by CLSI protocol based microdilution method; assay type: functional
[21] = tested on: Burkholderia thailandensis; assay: Antibacterial activity against Burkholderia thailandensis E264TS32C47 under 1 uM FeCl3 medium by CLSI protocol based microdilution method; assay type: functional
[22] = tested on: Burkholderia pseudomallei; assay: Antibacterial activity against Burkholderia pseudomallei BPS2020IRBA001 under succinate minimum medium by CLSI protocol based microdilution method; assay type: functional
[23] = tested on: Burkholderia thailandensis; assay: Antibacterial activity against Burkholderia thailandensis E264TS32C12 under muller hinton medium by CLSI protocol based microdilution method; assay type: functional
[24] = Stability in aqueous solution assessed as half life; assay type: physicochemical
[25] = tested on: Burkholderia thailandensis; assay: Antibacterial activity against Burkholderia thailandensis E264TS32C10 under 1 uM FeCl3 medium by CLSI protocol based microdilution method; assay type: functional
[26] = tested on: Lipid bilayer; assay: Binding affinity to bacterial inner membrane mimic PE/PG/CL/PC (60:20:10:10) assessed as maximum insertion pressure
[27] = tested on: Burkholderia thailandensis; assay: Antibacterial activity against Burkholderia thailandensis E264 under muller hinton medium by CLSI protocol based microdilution method; assay type: functional
[28] = tested on: Burkholderia thailandensis; assay: Antibacterial activity against Burkholderia thailandensis E264TS32C47 under muller hinton medium by CLSI protocol based microdilution method; assay type: functional
[29] = tested on: Pseudomonas aeruginosa; assay: Antibacterial activity against Pseudomonas aeruginosa PAO1 under 1 uM FeCl3 medium by CLSI protocol based microdilution method; assay type: functional
[30] = tested on: Burkholderia thailandensis; assay: Antibacterial activity against Burkholderia thailandensis E264 under 1 uM FeCl3 medium by CLSI protocol based microdilution method; assay type: functional
[31] = tested on: Burkholderia pseudomallei; assay: Antibacterial activity against Burkholderia pseudomallei BPS2020IRBA005 under succinate minimum medium by CLSI protocol based microdilution method; assay type: functional
[32] = tested on: Pseudomonas aeruginosa; assay: Antibacterial activity against Pseudomonas aeruginosa PAO1 under succinate minimum medium by CLSI protocol based microdilution method; assay type: functional
[33] = tested on: Burkholderia pseudomallei; assay: Antibacterial activity against Burkholderia pseudomallei BPS2020IRBA005 under muller hinton medium by CLSI protocol based microdilution method; assay type: functional
[34] = tested on: Burkholderia thailandensis; assay: Antibacterial activity against Burkholderia thailandensis E264TS32C47 under succinate minimum medium by CLSI protocol based microdilution method; assay type: functional
[35] = tested on: Burkholderia pseudomallei; assay: Antibacterial activity against Burkholderia pseudomallei K96243 under 1 uM FeCl3 medium by CLSI protocol based microdilution method; assay type: functional
[36] = tested on: Pseudomonas aeruginosa; assay: Antibacterial activity against Pseudomonas aeruginosa PAD07 under muller hinton medium by CLSI protocol based microdilution method; assay type: functional
[37] = tested on: Burkholderia thailandensis; assay: Antibacterial activity against Burkholderia thailandensis E264TS32C12 under succinate minimum medium by CLSI protocol based microdilution method; assay type: functional
[38] = tested on: Pseudomonas aeruginosa; assay: Antibacterial activity against Pseudomonas aeruginosa AM85 under muller hinton medium by CLSI protocol based microdilution method; assay type: functional
[39] = tested on: Burkholderia pseudomallei; assay: Antibacterial activity against Burkholderia pseudomallei BPS2020IRBA002 under succinate minimum medium by CLSI protocol based microdilution method; assay type: functional
[40] = tested on: Burkholderia pseudomallei; assay: Antibacterial activity against Burkholderia pseudomallei BPS2020IRBA003 under 1 uM FeCl3 medium by CLSI protocol based microdilution method; assay type: functional
[41] = tested on: HepG2; assay: Cytotoxicity against human HepG2 cells at 23 ug/ml after 48 hrs by CellTiter-Glo luminescent cell viability assay; assay type: toxicity, cell-based; conditions: hepg2, 48 h, dose 23 µg/ml
[42] = tested on: Burkholderia pseudomallei; assay: Antibacterial activity against Burkholderia pseudomallei BPS2020IRBA005 under 1 uM FeCl3 medium after 48 hrs by CLSI protocol based microdilution method; assay type: functional

| Structure (SMILES) | MIC [1] | MIC [2] | MIC [3] | MIC [5] | MIC [6] | MIC [7] | MIC [10] | MIC [11] | MIC [12] | MIC [13] | MIC [14] | MIC [15] | MIC [16] | MIC [17] | MIC [19] | MIC [21] | MIC [22] | MIC [23] | MIC [25] | MIC [27] | further results |
| --- | --- | --- | --- | --- | --- | --- | --- | --- | --- | --- | --- | --- | --- | --- | --- | --- | --- | --- | --- | --- | --- |
| CC(OC(=O)c1cc(=O)c(O)c[nH]1)OC(=O)N1CCN(c2cc3c(cc2F)c(=O)c(C(=O)O)cn3C2CC2)CC1 (stereo not given) | 16 µg/mL (≈ 28.8 µM) | 0.25 µg/mL (≈ 0.449 µM) | 16 µg/mL (≈ 28.8 µM) | 32 µg/mL (≈ 57.5 µM) | 64 µg/mL (≈ 115 µM) | 64 µg/mL (≈ 115 µM) | 4 µg/mL (≈ 7.19 µM) | 32 µg/mL (≈ 57.5 µM) | 1 µg/mL (≈ 1.8 µM) | 128 µg/mL (≈ 230 µM) | 0.25 µg/mL (≈ 0.449 µM) | 8 µg/mL (≈ 14.4 µM) | 8 µg/mL (≈ 14.4 µM) | 2 µg/mL (≈ 3.59 µM) | 1 µg/mL (≈ 1.8 µM) | 4 µg/mL (≈ 7.19 µM) | 32 µg/mL (≈ 57.5 µM) | 16 µg/mL (≈ 28.8 µM) | 32 µg/mL (≈ 57.5 µM) | 4 µg/mL (≈ 7.19 µM) | MIC [4]: 2 µg/mL (≈ 3.59 µM); MIC [8]: 1 µg/mL (≈ 1.8 µM); MIC [9]: 2 µg/mL (≈ 3.59 µM); Activity [18]: Non-Toxic; MIC [20]: 32 µg/mL (≈ 57.5 µM); half-life [24]: 168 h; Activity [26]: 29.5 mN/meter; MIC [28]: 8 µg/mL (≈ 14.4 µM); MIC [29]: 2 µg/mL (≈ 3.59 µM); MIC [30]: 4 µg/mL (≈ 7.19 µM); MIC [31]: 1 µg/mL (≈ 1.8 µM); MIC [32]: 2 µg/mL (≈ 3.59 µM); MIC [33]: 16 µg/mL (≈ 28.8 µM); MIC [34]: 8 µg/mL (≈ 14.4 µM); MIC [35]: 1 µg/mL (≈ 1.8 µM); MIC [36]: 0.25 µg/mL (≈ 0.449 µM); MIC [37]: 16 µg/mL (≈ 28.8 µM); MIC [38]: 32 µg/mL (≈ 57.5 µM); MIC [39]: 16 µg/mL (≈ 28.8 µM); MIC [40]: 4 µg/mL (≈ 7.19 µM) |
| O=C(O)c1cn(C2CC2)c2cc(N3CCN(C(=O)c4cc(=O)c(O)c[nH]4)CC3)c(F)cc2c1=O | > 128 µg/mL | 2 µg/mL (≈ 4.27 µM) | > 128 µg/mL | > 128 µg/mL | > 128 µg/mL | > 128 µg/mL | > 128 µg/mL | > 128 µg/mL | 32 µg/mL (≈ 68.3 µM) | 32 µg/mL (≈ 68.3 µM) | 16 µg/mL (≈ 34.2 µM) | > 128 µg/mL | > 128 µg/mL | > 128 µg/mL | > 128 µg/mL | > 128 µg/mL | > 128 µg/mL | > 128 µg/mL | > 128 µg/mL | > 128 µg/mL | MIC [4]: > 128 µg/mL; MIC [8]: > 128 µg/mL; MIC [9]: > 128 µg/mL; MIC [20]: > 128 µg/mL; MIC [28]: > 128 µg/mL; MIC [29]: 32 µg/mL (≈ 68.3 µM); MIC [30]: > 128 µg/mL; MIC [31]: > 128 µg/mL; MIC [32]: 32 µg/mL (≈ 68.3 µM); MIC [33]: > 128 µg/mL; MIC [34]: > 128 µg/mL; Activity [41]: Non-Toxic; MIC [35]: > 128 µg/mL; MIC [36]: 32 µg/mL (≈ 68.3 µM); MIC [37]: > 1.8 µg/mL; MIC [38]: > 128 µg/mL; MIC [39]: > 128 µg/mL; MIC [40]: > 128 µg/mL |
| CC(C)(O/N=C(\C(=O)N[C@@H]1C(=O)N2C(C(=O)[O-])=C(C[n+]3ccccc3)CS[C@H]12)c1csc(N)n1)C(=O)O [CEFTAZIDIME] | 128 µg/mL (≈ 234 µM) | 0.25 µg/mL (≈ 0.457 µM) | > 128 µg/mL | 2 µg/mL (≈ 3.66 µM) | 0.25 µg/mL (≈ 0.457 µM) | 4 µg/mL (≈ 7.32 µM) | 4 µg/mL (≈ 7.32 µM) | 2 µg/mL (≈ 3.66 µM) | 1 µg/mL (≈ 1.83 µM) | 1 µg/mL (≈ 1.83 µM) | 1 µg/mL (≈ 1.83 µM) | 8 µg/mL (≈ 14.6 µM) | 8 µg/mL (≈ 14.6 µM) | 2 µg/mL (≈ 3.66 µM) | 8 µg/mL (≈ 14.6 µM) | 4 µg/mL (≈ 7.32 µM) | 2 µg/mL (≈ 3.66 µM) | 4 µg/mL (≈ 7.32 µM) | 2 µg/mL (≈ 3.66 µM) | 4 µg/mL (≈ 7.32 µM) | MIC [28]: 4 µg/mL (≈ 7.32 µM); MIC [29]: 1 µg/mL (≈ 1.83 µM); MIC [30]: 4 µg/mL (≈ 7.32 µM); MIC [31]: 8 µg/mL (≈ 14.6 µM); MIC [32]: 0.25 µg/mL (≈ 0.457 µM); MIC [34]: 4 µg/mL (≈ 7.32 µM); MIC [42]: 8 µg/mL (≈ 14.6 µM); MIC [35]: 8 µg/mL (≈ 14.6 µM); MIC [36]: 1 µg/mL (≈ 1.83 µM); MIC [37]: 8 µg/mL (≈ 14.6 µM); MIC [38]: 4 µg/mL (≈ 7.32 µM); MIC [39]: 64 µg/mL (≈ 117 µM) |
